According to patent US20250320471A1, “Method for Producing Compounds, Method for Producing Compound Library, Compound Library, and Screening Method” (The University of Tokyo, priority 2021, published 2025):
Values joined by “and” are separate entries in the source; they are usually repeats but may differ in a detail not shown here. Equal values may be shown once. Ends that are not written are not given here. Peptide text beside a SMILES is read from it.

Tests used:
LimF [1] = experiment: His-prenylation of low molecular weight compounds, peptides and proteins by LimF; format: biochemical, Limnothrix sp. CACIAM 69d; conditions: 100 μM LimF, 2 mM GPP, 20 hours; for His-prenylation efficiency (LC/MS): standard conditions
Excerpt: Next, various low molecular weight compounds, peptides, and proteins, including various compounds that have already been approved as pharmaceuticals, were subjected to His-prenylation facilitated by LimF.

Fnq26 = molecular target: T1, Fnq26 (Streptomyces virginiae, UniProt A2AXG5); conditions: Aromatic C10 O-prenylation; cited from earlier work
T1 sequence (A2AXG5 1-300): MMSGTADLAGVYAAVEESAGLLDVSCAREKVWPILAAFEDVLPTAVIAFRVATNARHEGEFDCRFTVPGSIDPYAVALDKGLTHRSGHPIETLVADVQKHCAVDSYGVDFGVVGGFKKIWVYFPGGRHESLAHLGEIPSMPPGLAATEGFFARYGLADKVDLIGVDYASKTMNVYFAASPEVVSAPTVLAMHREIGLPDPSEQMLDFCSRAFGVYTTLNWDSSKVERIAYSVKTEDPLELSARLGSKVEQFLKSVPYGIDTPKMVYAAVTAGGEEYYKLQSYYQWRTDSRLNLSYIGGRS

PirF = conditions: Tyr C10 O-prenylation; cited from earlier work
LimF [2] = experiment: Steady-state kinetics of prenylation facilitated by LimF (wild type); format: biochemical, Limnothrix sp. CACIAM 69d; conditions: Tyr-prenylation (C10 O-), 5 μM LimF, 16° C.
Experimental: Under optimal conditions, the steady-state kinetic parameters of the prenylation reaction of bcLimE2 facilitated by LimF were measured by the methods described below.
The concentration dependence of GPP and MgCl2 in bcLimE2 prenylation reactions facilitated by LimF was measured in reaction systems containing 1 μM LimF, 1 mM or a suitably modified concentration of GPP, 50 mM HEPES pH 7.2, 0.4 mM substrate, 1 mM DTT, and 40 mM or a suitably modified concentration of MgCl2. A reaction solution containing components other than GPP was prepared and preheated to 25° C., and the reaction was then started by adding GPP. After incubating at 25° C., the reaction was stopped at each point and analyzed by LC-MS. Next, the initial rate was calculated as the slope of increase in the amount of prenylation product produced in the linear region. Three separate reactions were carried out under each condition and the mean and standard deviation of the results were used for the analysis.
For GPP concentration dependence and peptide substrate concentration dependence, the kinetic parameters were estimated by fitting the initial rate and GPP substrate concentration or peptide substrate concentration to the Michaelis-Menten model in Graphpad Prism 8.4.2 (GraphPad Prism Software Inc., San Diego, California) software.
Kinetic parameters of the His-prenylation reaction facilitated by LimF were determined based on reactions under optimal conditions using substrates of different concentrations. For the Tyr-prenylation described below, the kinetic parameters were measured under the same conditions except that LimF was set to 5 μM and the reaction temperature was set to 16° C. In order to estimate the kinetic parameters, the initial rate and substrate concentration were fitted to the Michaelis-Menten model in Graphpad Prism 8.4.2 software.
In order to further evaluate the two different prenylation modes by LimF, two teMPs (teR6-H5A/Y7H and teR6-H5A) that undergo efficient His-prenylation and Tyr-prenylation, respectively, were designed and chemically synthesized. Kinetic analysis was carried out according to the above method using these peptides.

PagF = conditions: Tyr C5 O-prenylation; cited from earlier work
bcLimE2 [3] = experiment: Prenyl group donor tolerance of LimF variants (conversion of bcLimE2); format: biochemical; set-up: key to Final Conversion Efficiency: “n.r.” indicates that the reaction did not proceed; conditions: for Final Conversion Efficiency: substrate bcLimE2
Experimental: An attempt was made to change the selectivity of LimF with respect to prenyl group donors examined in “2. Evaluation of Enzymatic Activity of LimF” by introducing a mutation into LimF. […], illustrated in FIG. 7(a), was used as the substrate.
(§1) For the assay of LimF variants, 100 μM bcLimE2 was incubated individually at a 5 μL scale with 20 to 100 μM LimF variants under conditions of 1 mM GPP or DMAPP, 50 mM HEPES (pH 7.2), 40 mM MgCl2, 1 mM DTT, and DMSO (4%, v/v). After incubating for 16 hours at 25° C., the reaction was stopped by adding 9 times the amount (45 μL) of a 1% TFA aqueous solution. Next, the mixture was incubated on ice for 10 minutes, a precipitate was separated by centrifugation at 4° C. (15300×g, 10 minutes), and 1 μL of supernatant was subjected to LC-MS analysis.
An amino acid forming a small pocket that stores a prenyl group in the crystal structure was selected for the introduction site of the LimF mutation. Specifically, Gly at position 224 was selected, and this was substituted with a larger amino acid. […] This alignment supports the hypothesis that the 224th Gly contributes to prenyl group selectivity.
as §1, with “[…]” for “5 μL”, “or FPP,” for “or DMAPP,”, “7.2), 5” for “7.2), 40”, “([…])” for “(45 μL)”
An amino acid forming a small pocket that stores a prenyl group in the crystal structure was selected for the introduction site of the LimF mutation. Specifically, the amino acids at the positions described in the table in the left column of FIG. 19 were replaced with relatively small Ala.
Therefore, substitution of amino acids other than Ala with respect to the W273 position was comprehensively performed (middle column of FIG. 19). As a result, The mutation for W273N and W273T are focused, and in addition to the W273N mutation and the W273T mutation, simultaneous substitution with various amino acids was performed for His at 239, which is an amino acid adjacent to position 273 (right column of FIG. 19).

bcLimE2 [4] = molecular target: T2, bcLimE2
T2 chain: RYPHEEIP

Molecule: H-Pyr-His-Trp-Ser-Tyr-D-Leu-Leu-Arg-Pro-NHEt [Leoprorelin]
- prenylation of His residue or imidazole C2 carbon by LimF (in words) (LimF [1]): very high efficiency
- His-prenylation efficiency (LC/MS) (LimF [1]; 500 μM substrate): 99%

Molecule: O=C(O)c1ccc(O)cc1 [4-hydroxy-benzoate]
- Kcat (Fnq26): 0.00233 s⁻¹
- Km (Fnq26): 5600 µM

Molecule: H-Asp-Arg-Val-Tyr-Ile-His-Pro-Phe-OH [ANGIOTENSIN II]
- His-prenylation efficiency (LC/MS) (LimF [1]; 500 μM substrate): 1%

Molecule: CN/C(=N\C#N)NCCSCc1nc[nH]c1C [Cimetidine, cimetidine]
- prenylation of His residue or imidazole C2 carbon by LimF (in words) (LimF [1]): very high efficiency
- His-prenylation efficiency (LC/MS) (LimF [1]; 500 μM substrate): 97%

Molecule: tecyclo[wAVSNLPPRPHITYIEC]S [PBm1]
- prenylation of His residue or imidazole C2 carbon by LimF (in words) (LimF [1]): very high efficiency
- His-prenylation efficiency (LC/MS) (LimF [1]; 500 μM substrate): 99%

Molecule: CCNC(=O)[C@@H]1CCCN1C(=O)[C@H](CCCNC(=N)N)NC(=O)[C@H](CC(C)C)NC(=O)[C@@H](Cc1cn(Cc2ccccc2)cn1)NC(=O)[C@H](Cc1ccc(O)cc1)NC(=O)[C@H](CO)NC(=O)[C@H](Cc1c[nH]c2ccccc12)NC(=O)[C@H](Cc1cnc[nH]1)NC(=O)[C@@H]1CCC(=O)N1 [Histrelin, H-Pyr-His-Trp-Ser-Tyr-D-His(1-Bn)-Leu-Arg-Pro-NHEt]
- prenylation of His residue or imidazole C2 carbon by LimF (in words) (LimF [1]): very high efficiency
- His-prenylation efficiency (LC/MS) (LimF [1]; 500 μM substrate): 99%

Molecule: Insulin
- His-prenylation efficiency (LC/MS) (LimF [1]; 500 μM substrate): 5%

Molecule: cyclo[MSGVDYYNP] (head-to-tail cyclized)
- Kcat (PirF): 0.0117 s⁻¹
- Km (PirF): 116 µM

Molecule: Aviptadil: synthetic vasoactive intestinal polypeptide (HSDAVFTDNYTRLRKQMAVKKYLNSILN; Aviptadil)
- His-prenylation efficiency (LC/MS) (LimF [1]; 125 μM substrate): about 90%
- His-prenylation efficiency (LC/MS) (LimF [1]; 125 μM substrate, listed as Avipt ?): 90%

Molecule: O=C1C(O)=CC(=O)c2c(O)cc(O)cc21 [flaviolin]
- Kcat (Fnq26): 0.000217 s⁻¹
- Km (Fnq26): 21 µM

Molecule: tecyclo[DFRGNATYIPC] [teR6-H5A]
- Kcat (LimF [2]): 0.0167 s⁻¹ and 0.0167 ± 0.0017 s⁻¹
- Km (LimF [2]): 7300 ± 1800 µM
- Kcat (LimF [2]; listed as tecyclo[DFRGNATYIPC]): 0.0167 s⁻¹

Molecule: MSGVDYYNPFAGDDAE
- Kcat (PirF): 0.0183 s⁻¹
- Km (PirF): 118 µM

Molecule: CCCC[C@H](NC(C)=O)C(=O)N[C@H]1CC(=O)NCCCC[C@@H](C(=O)O)NC(=O)[C@H](Cc2c[nH]c3ccccc23)NC(=O)[C@H](CCCN=C(N)N)NC(=O)[C@@H](Cc2ccccc2)NC(=O)[C@H](Cc2cnc[nH]2)NC1=O [Bremelanotide, Ac-Nle-Asp(1)-His-D-Phe-Arg-Trp-Lys(1)-OH]
- His-prenylation efficiency (LC/MS) (LimF [1]; 500 μM substrate): 1%

Molecule: Trp-His-Trp-Leu-Gln-Leu-Lys-Pro-Gly-Gln-Pro-Met-Tyr-OH (WHWLQLKPGQPMY-OH) [α-mating factor, cell signaling peptide for yeast]
- His-prenylation efficiency (LC/MS) (LimF [1]; 500 μM substrate): 39%

Molecule: Pramlintide: analog of amylin (KCNTATCATQRLANFLVHSSNNFGPILPPTNVGSNTY; Pramlintide)
- prenylation of His residue or imidazole C2 carbon by LimF (in words) (LimF [1]): very high efficiency
- His-prenylation efficiency (LC/MS) (LimF [1]; 125 μM substrate): 99%

Molecule: N[C@@H](Cc1ccc(O)cc1)C(=O)N[C@@H](Cc1ccc(O)cc1)C(=O)N[C@@H](Cc1ccc(O)cc1)C(=O)O [YYY] (H-Tyr-Tyr-Tyr-OH)
- Kcat (PagF): 0.0967 s⁻¹
- Km (PagF): 160 µM

Molecule: NC(=O)[C@@H]1CCCN1C(=O)[C@H](Cc1cnc[nH]1)NC(=O)[C@@H]1CCC(=O)N1 [TRH]
- His-prenylation efficiency (LC/MS) (LimF [1]; 500 μM substrate): 15%

Molecule: Cyclo(-Ser-Asn-Leu-Ser-Thr-Asu)-Val-Leu-Gly-Lys-Leu-Ser-Gln-Glu-Leu-His-Lys-Leu-Gln-Thr-Tyr-Pro-Arg-Thr-Asp-Val-Gly-Ala-Gly-Thr-Pro-NH2 [Elcatonin]
- His-prenylation efficiency (LC/MS) (LimF [1]; 125 μM substrate): 5%

Molecule: Teduglutide (HGDGSFSDEMNTILDNLAARDFINWLIQTKITD; chains of the INN, looked up)
- prenylation of His residue or imidazole C2 carbon by LimF (in words) (LimF [1]): very high efficiency
- His-prenylation efficiency (LC/MS) (LimF [1]; 125 μM substrate): 50%

B1: LimF-H239G/W273T (protein)
chain: MKKRKSSKVFKSTIAPEEKLRYIGNHKQAFDIEPLYPLALFEEFVATTGDCIIECSGKIKQDQLYPARIDLQFSDKHHFHNIHTSIDFLKRAASRTDVNLNLDILATFLAGNFDYSKVQNILAGIDLRQNLGESKLKLFIRIGDYPAKMAVAKHLCNITPESEAMLRSDTLHIGFDFYLDGRSAIELYPELKKDEFNHPFIYNQLKTILSPEALKPLPLCNLFGIGLSPANEANVLYYGLENIEDFLSYFPINDTARRVHDFYLQQEGSRRMTVALSESEMKAGRINNVNLYYSKAFTSQNP
- C15 prenylation (farnesylation) selectivity and efficiency (bcLimE2 [3]; 100 μM bcLimE2, 1 mM GPP or FPP, 5 mM MgCl2, 16 hours, 25° C.): high selectivity and high efficiency
- Final Conversion Efficiency (bcLimE2 [3]; prenyl group donor DMAPP): n.r.
- Final Conversion Efficiency (bcLimE2 [3]; prenyl group donor FPP): >99%
- Final Conversion Efficiency (bcLimE2 [3]; prenyl group donor GGPP): n.r.
- Final Conversion Efficiency (bcLimE2 [3]; prenyl group donor GPP): 16.9%
- KM (mM), kinetics of prenylation of bcLimE2 with FPP as prenyl group donor (bcLimE2 [4]): 0.62 mM
- KM (mM), kinetics of prenylation of bcLimE2 with GPP as prenyl group donor (bcLimE2 [4]): 0.58 mM

B2: wt-LimF: prenyltransferase derived from Limnothrix sp. CACIAM 69d, SEQ ID NO: 1 (protein, listed as Limnothrix sp.)
chain: MKKRKSSKVFKSTIAPEEKLRYIGNHKQAFDIEPLYPLALFEEFVATTGDCIIECSGKIKQDQLYPARIDLQFSDKHHFHNIHTSIDFLKRAASRTDVNLNLDILATFLAGNFDYSKVQNILAGIDLRQNLGESKLKLFIRIGDYPAKMAVAKHLCNITPESEAMLRSDTLHIGFDFYLDGRSAIELYPELKKDEFNHPFIYNQLKTILSPEALKPLPLCNLFGIGLSPANEANVLYYHLENIEDFLSYFPINDTARRVHDFYLQQEGSRRMWVALSESEMKAGRINNVNLYYSKAFTSQNP
modifications: CACIAM 69d
- Final Conversion Efficiency (bcLimE2 [3]; prenyl group donor DMAPP): n.r.
- Final Conversion Efficiency (bcLimE2 [3]; prenyl group donor FPP): 0.0027%
- Final Conversion Efficiency (bcLimE2 [3]; prenyl group donor GGPP): n.r.
- Final Conversion Efficiency (bcLimE2 [3]; prenyl group donor GPP): >99%
